Experiments:
Format in all cases: cell-based
CFTR ΔF508 mutant = molecular target: T1, CFTR ΔF508 mutant (Homo sapiens, UniProt P13569, DEL508-508); assay: YFP-halide influx assay for the CFTR-ΔF508 mutation; conditions: CFBE41o- cells expressing CFTR ΔF508 and YFP reporter, forskolin 10.67 μM; for EC50: (1-F/F0) vs concentration
T1 construct: expressed in transfected cells; host or cells: CFBE41o- cells transduced with adenoviral vectors
From the text: The YFP halide influx assay measured the functionality of the cystic fibrosis Transmembrane Conductance regulator (CFTR) channels in the cystic fibrosis bronchial epithelium cell line CFBE41o-. The assay was used to evaluate the capacity of compounds to increase the open probability of existing CFTR channels in the membrane. It makes use of the observation that the yellow fluorescent protein (YFP) variant YFP H148Q, I152L, F47L has its fluorescence substantially quenched by halide ions like Cl^− and I^− (Galietta, L. J. V., Haggie, P. M., Verkman, A. S., 2001. Green fluorescent protein-based halide indicators with improved chloride and iodide affinities. FEBS Lett. 499, 220-224. doi:10.1016/S0014-5793(01)02561-3; Nagai, T., Ibata, K., Park, E. S., Kubota, M., Mikoshiba, K., Miyawaki, A., 2002. A variant of yellow fluorescent protein with fast and efficient maturation for cell-biological applications. Nat. Biotechnol. 20, 87-90. doi:10.1038/nbt0102-87).
For this purpose, CFBE410-cells were seeded in 384 well plates (3000 CFBE cells/well). One day after seeding, the CFBE cells were transduced with adenoviral vectors that direct the expression of the CFTR ΔF508 mutant and of the YFP reporter. Cells were incubated at 27° C., 5% CO2 for 24 hours so as to allow for the proper folding and migration to the membrane of the CFTR channel or treated with a CFTR modulator during 24 hours at 37° C.
(§1) The I-induced quenching of fluorescence was recorded on an immediately after injection of iodide for 2 minutes on an FDSS/μCell (Hamamatsu). The capacity of a compound to increase the channel opening was directly correlated with the decrease in fluorescence, and was expressed as (1-(fluorescence after 36 seconds (F)/fluorescence before injection (F0))) and an EC50 was derived from a (1-F/F0) vs compound concentration plot.

CFTR G551D mutant = molecular target: T2, CFTR G551D mutant (Homo sapiens, UniProt P13569, G551D); assay: YFP-halide influx assay for the CFTR-G551D mutation; conditions: HEK293 cells expressing CFTR G551D and YFP reporter; forskolin 10.67 μM
T2 construct: expressed in transfected cells; host or cells: HEK293 cells, reverse-transfected with plasmid vectors
T2 sequence (P13569 whole entry G551D): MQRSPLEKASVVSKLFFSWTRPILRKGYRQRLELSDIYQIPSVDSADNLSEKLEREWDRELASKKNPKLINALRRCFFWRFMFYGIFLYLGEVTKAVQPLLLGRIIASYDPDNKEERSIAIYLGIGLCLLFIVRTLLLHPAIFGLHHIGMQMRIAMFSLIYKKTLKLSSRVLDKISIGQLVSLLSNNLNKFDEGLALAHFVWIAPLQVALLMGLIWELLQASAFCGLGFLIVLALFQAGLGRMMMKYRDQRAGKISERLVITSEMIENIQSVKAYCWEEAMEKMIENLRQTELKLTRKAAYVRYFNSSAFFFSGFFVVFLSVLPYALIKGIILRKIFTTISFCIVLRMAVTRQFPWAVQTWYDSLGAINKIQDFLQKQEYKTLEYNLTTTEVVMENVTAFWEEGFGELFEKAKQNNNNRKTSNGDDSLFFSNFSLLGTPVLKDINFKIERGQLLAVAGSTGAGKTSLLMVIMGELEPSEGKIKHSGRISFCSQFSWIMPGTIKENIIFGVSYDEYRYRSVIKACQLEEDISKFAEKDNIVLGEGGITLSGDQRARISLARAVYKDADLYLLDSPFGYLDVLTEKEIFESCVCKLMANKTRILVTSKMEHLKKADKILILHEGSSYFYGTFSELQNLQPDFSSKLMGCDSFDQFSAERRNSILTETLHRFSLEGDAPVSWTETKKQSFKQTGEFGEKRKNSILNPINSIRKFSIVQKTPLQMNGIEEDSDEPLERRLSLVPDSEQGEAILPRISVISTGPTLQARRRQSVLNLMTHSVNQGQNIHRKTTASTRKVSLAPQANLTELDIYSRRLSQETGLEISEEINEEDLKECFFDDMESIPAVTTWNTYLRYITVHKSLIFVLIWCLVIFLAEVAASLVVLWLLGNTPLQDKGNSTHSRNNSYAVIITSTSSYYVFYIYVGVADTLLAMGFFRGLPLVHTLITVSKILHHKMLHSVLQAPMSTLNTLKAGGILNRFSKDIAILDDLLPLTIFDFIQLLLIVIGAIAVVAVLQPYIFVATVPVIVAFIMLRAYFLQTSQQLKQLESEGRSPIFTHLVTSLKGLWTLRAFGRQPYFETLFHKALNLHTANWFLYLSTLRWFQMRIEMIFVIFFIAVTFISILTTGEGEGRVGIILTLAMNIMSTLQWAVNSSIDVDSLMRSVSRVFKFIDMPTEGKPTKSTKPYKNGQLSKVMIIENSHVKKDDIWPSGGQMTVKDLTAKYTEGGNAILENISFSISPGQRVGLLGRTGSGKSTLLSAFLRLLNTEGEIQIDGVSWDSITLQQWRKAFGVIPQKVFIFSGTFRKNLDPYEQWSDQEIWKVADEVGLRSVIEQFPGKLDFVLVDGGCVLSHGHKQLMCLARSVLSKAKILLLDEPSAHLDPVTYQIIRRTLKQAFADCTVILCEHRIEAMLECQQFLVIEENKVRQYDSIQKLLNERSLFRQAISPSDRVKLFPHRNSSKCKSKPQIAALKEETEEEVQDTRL
From the text: (§2) The YFP halide influx assay measured the functionality of the cystic fibrosis Transmembrane Conductance regulator (CFTR) channels. The assay was used to evaluate the capacity of compounds to increase the channel opening of existing mutant CFTR channels in the membrane. It makes use of the observation that the yellow fluorescent protein (YFP) variant YFP H148Q, I152L, F47L has its fluorescence substantially quenched by halide ions like Cl^− and I^− (Galietta, L. J. V., Haggie, P. M., Verkman, A. S., 2001. Green fluorescent protein-based halide indicators with improved chloride and iodide affinities. FEBS Lett. 499, 220-224. doi:10.1016/S0014-5793(01)02561-3).
(§3) For this purpose, HEK293-cells were seeded in 96 well plates. During seeding, the cells were reverse-transfected with plasmid vectors that direct the expression of the CFTR G551D mutant and of the YFP reporter. Cells were incubated at 37° C., 5% CO2 for 24 hours so as to allow for sufficient expression of the CFTR protein.
as §1, with “I^−-induced” for “I-induced”, “recorded” for “recorded on an”, “I^−” for “iodide”, “7 seconds.” for “2 minutes on an FDSS/μCell (Hamamatsu).”, “7” for “36”, “(1−F/F0)” for “(1-F/F0)”

CFTR-G178R = molecular target: T3, CFTR-G178R (Homo sapiens, UniProt P13569, G178R); assay: YFP-halide influx assay for the CFTR-G178R
T3 construct: expressed in transfected cells; HEK293 with plasmid vectors inferred from the G551D protocol, to which the assay is called similar
T3 sequence (P13569 whole entry G178R): as the sequence (P13569 whole entry G551D) above, with G178R, D551G counted along it
From the text: as §2, §3
as §1, with “I^−-induced” for “I-induced”, “recorded” for “recorded on an”, “I^−” for “iodide”, “7 seconds.” for “2 minutes on an FDSS/μCell (Hamamatsu).”, “7” for “36”, “(1−F/F0)” for “(1-F/F0)”
(§4) Similar YHA assays were developed for other channel gating defective or channel conductance defective CFTR mutants to determine effect of compound on channel activity. Examples of mutants are G178R, G1349D, S549N, R117H, R334W. This assay is also used for additional class I CFTR mutants, including G542X, W1282X; class II mutants including N1303K, and for class III mutants including S1251N; or wild-type CFTR.

CFTR-G1349D = molecular target: T4, CFTR-G1349D (Homo sapiens, UniProt P13569, G1349D); assay: YFP-halide influx assay for the CFTR-G1349D
T4 construct: expressed in transfected cells; HEK293 with plasmid vectors inferred from the G551D protocol, to which the assay is called similar
T4 sequence (P13569 whole entry G1349D): as the sequence (P13569 whole entry G551D) above, with D551G, G1349D counted along it
From the text: as §2, §3
as §1, with “I^−-induced” for “I-induced”, “recorded” for “recorded on an”, “I^−” for “iodide”, “7 seconds.” for “2 minutes on an FDSS/μCell (Hamamatsu).”, “7” for “36”, “(1−F/F0)” for “(1-F/F0)”
as §4

CFTR-S549N = molecular target: T5, CFTR-S549N (Homo sapiens, UniProt P13569, S549N); assay: YFP-halide influx assay for the CFTR-S549N
T5 construct: expressed in transfected cells; HEK293 with plasmid vectors inferred from the G551D protocol, to which the assay is called similar
T5 sequence (P13569 whole entry S549N): as the sequence (P13569 whole entry G551D) above, with S549N, D551G counted along it
From the text: as §2, §3
as §1, with “I^−-induced” for “I-induced”, “recorded” for “recorded on an”, “I^−” for “iodide”, “7 seconds.” for “2 minutes on an FDSS/μCell (Hamamatsu).”, “7” for “36”, “(1−F/F0)” for “(1-F/F0)”
as §4

CFTR-R117H = molecular target: T6, CFTR-R117H (Homo sapiens, UniProt P13569, R117H); assay: YFP-halide influx assay for the CFTR-R117H
T6 construct: expressed in transfected cells; HEK293 with plasmid vectors inferred from the G551D protocol, to which the assay is called similar
T6 sequence (P13569 whole entry R117H): as the sequence (P13569 whole entry G551D) above, with R117H, D551G counted along it
From the text: as §2, §3
as §1, with “I^−-induced” for “I-induced”, “recorded” for “recorded on an”, “I^−” for “iodide”, “7 seconds.” for “2 minutes on an FDSS/μCell (Hamamatsu).”, “7” for “36”, “(1−F/F0)” for “(1-F/F0)”
as §4

CFTR ΔF508 = molecular target: T7, CFTR ΔF508 (Homo sapiens, UniProt P13569, DEL508-508); assay: TECC assay in CFTR ΔF508, primary bronchial epithelial cells; conditions: bronchial epithelial cells from CF patients homozygous for ΔF508, treated with 3 μM VX809 or 0.15 μM GLPG2222; increase in Isc after forskolin
T7 construct: bronchial epithelial cells isolated from CF patients homozygous for the CFTR ΔF508 mutation; host or cells: primary human bronchial epithelial cells (hAEC-CF) from CF patients homozygous for ΔF508, pre-treated with the corrector VX809 or GLPG2222
T7 sequence (P13569 with tags, fused parts or gaps DEL508-508): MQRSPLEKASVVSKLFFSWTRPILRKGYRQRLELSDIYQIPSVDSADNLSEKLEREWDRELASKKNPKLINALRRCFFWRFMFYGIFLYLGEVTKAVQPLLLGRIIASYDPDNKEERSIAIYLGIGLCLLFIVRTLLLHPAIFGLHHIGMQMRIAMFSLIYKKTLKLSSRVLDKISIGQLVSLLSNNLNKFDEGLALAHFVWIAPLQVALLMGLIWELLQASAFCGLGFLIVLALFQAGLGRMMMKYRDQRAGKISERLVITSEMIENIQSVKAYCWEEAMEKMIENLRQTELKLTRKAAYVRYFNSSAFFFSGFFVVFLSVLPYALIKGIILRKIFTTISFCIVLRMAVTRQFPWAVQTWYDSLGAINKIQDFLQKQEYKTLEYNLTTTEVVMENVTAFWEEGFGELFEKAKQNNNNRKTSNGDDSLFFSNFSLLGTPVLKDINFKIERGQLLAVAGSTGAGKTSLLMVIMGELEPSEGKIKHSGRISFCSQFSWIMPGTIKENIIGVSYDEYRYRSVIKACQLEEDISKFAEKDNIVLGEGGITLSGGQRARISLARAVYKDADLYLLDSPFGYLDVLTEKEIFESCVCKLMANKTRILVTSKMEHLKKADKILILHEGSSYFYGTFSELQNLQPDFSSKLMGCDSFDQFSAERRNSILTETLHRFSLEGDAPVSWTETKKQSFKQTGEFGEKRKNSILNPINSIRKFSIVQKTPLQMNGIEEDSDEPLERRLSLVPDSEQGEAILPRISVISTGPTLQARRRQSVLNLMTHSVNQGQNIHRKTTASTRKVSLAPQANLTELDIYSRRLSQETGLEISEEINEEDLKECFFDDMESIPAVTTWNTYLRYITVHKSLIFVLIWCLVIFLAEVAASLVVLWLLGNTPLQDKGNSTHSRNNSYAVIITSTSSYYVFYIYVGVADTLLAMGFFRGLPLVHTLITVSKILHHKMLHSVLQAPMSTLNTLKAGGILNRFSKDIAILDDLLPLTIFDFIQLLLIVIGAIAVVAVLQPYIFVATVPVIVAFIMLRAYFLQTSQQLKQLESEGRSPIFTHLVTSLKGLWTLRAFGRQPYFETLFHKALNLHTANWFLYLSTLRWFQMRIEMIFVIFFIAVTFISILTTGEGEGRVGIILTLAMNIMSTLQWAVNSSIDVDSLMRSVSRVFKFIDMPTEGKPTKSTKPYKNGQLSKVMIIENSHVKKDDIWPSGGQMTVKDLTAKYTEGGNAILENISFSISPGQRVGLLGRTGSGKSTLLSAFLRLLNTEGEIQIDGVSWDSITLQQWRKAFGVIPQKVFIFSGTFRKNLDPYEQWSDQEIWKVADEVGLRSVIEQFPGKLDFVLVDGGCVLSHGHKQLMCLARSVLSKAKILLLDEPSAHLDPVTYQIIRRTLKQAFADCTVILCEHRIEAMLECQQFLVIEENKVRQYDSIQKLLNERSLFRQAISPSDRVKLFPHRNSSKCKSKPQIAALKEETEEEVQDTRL
Protocol: The TECC (Transepithelial Clamp Circuit, EP-design) assay measures the functionality of the cystic fibrosis Transmembrane Conductance regulator (CFTR) by measuring the short circuit current (ISC) generated over the basolateral and apical membrane of lung epithelial cells. In TECC the transepithelial potential PD and transepithelial resistance (Rt) are measured in an open circuit and transformed to ISC using Ohm's law. 24 Wells can be measured simultaneously allowing a higher throughput compared to Ussing chambers.
For this purpose, bronchial epithelial cells isolated from CF patients homozygous for the CFTR ΔF508 mutation (hAEC-CF, McGill, UNC) are plated on type IV collagen-coated Transwell® supports (Costar). Human airway epithelia are generated by provision of an air liquid interface for 21 days to form well-differentiated polarized cultures that resemble in vivo pseudo-stratified ciliated epithelium (Fulcher, M. L., Gabriel, S., Burns, K. A., Yankaskas, J. R., Randell, S. H., 2005. Well-differentiated human airway epithelial cell cultures. Methods Mol. Med. 107, 183-206). […]
When subjected to this protocol, the following values were obtained. The difference between ΔIsc measured as DMSO (baseline), and the ΔIsc measured with the compound tested.

T1 sequence (P13569 with tags, fused parts or gaps DEL508-508): as above

Row | Structure (SMILES) | % Activation (CFTR ΔF508 mutant) | EC50 (CFTR ΔF508 mutant) | % Activation (CFTR G551D mutant) | EC50 (CFTR G551D mutant) | further results
1 | Nc1cc(S(=O)(=O)c2ccc(OC(F)(F)F)cc2)cnc1-c1nnc(CO)o1 [Compound 1, (5-{3-amino-5-[4-(trifluoromethoxy)benzene-1-sulfonyl]pyridin-2-yl}-1,3,4-oxadiazol-2-yl)methanol] | 113.82% | 5.57 nM | 37.7% | > 10000 nM | % Activation (CFTR-G178R): 67.2%; EC50 (CFTR-G178R): 196 nM; % Activation (CFTR-G1349D): 72.8%; EC50 (CFTR-G1349D): 137 nM; % Activation (CFTR-S549N): 75.4%; EC50 (CFTR-S549N): 275 nM; % Activation (CFTR-R117H): 88.7%; EC50 (CFTR-R117H): 184 nM; EC50 (CFTR ΔF508): 40 nM
2 | Nc1cc(S(=O)(=O)c2ccc(OC(F)(F)F)cc2)cnc1-c1nnc(C(O)C(F)(F)F)o1 (centres unmarked) [Compound 4, 1-(5-{3-amino-5-[4-(trifluoromethoxy)benzene-1-sulfonyl]pyridin-2-yl}-1,3,4-oxadiazol-2-yl)-2,2,2-trifluoroethan-1-ol] | 103.69% | 1.8 nM | 34.3% | > 6770 nM | EC50 (CFTR ΔF508): 6 nM
3 | Nc1cc(S(=O)(=O)c2ccc(OC(F)(F)F)cc2)cnc1-c1ncc(CO)s1 [Compound 5, (2-{3-amino-5-[4-(trifluoromethoxy)benzene-1-sulfonyl]pyridin-2-yl}-1,3-thiazol-5-yl)methanol] | 58.29% | > 667 nM | 0.3% | > 10000 nM | –
4 | Nc1cc(S(=O)(=O)c2ccc(C(F)(F)F)cc2)cnc1-c1nnc(CO)s1 [Compound 62, (5-{3-amino-5-[4-(trifluoromethyl)benzene-1-sulfonyl]pyridin-2-yl}-1,3,4-thiadiazol-2-yl)methanol] | 113% | < 0.44 nM | – | – | –
5 | Nc1cc(S(=O)(=O)c2ccc(OC(F)(F)F)cc2)c(Cl)nc1-c1nnc(CO)o1 [Compound 64, (5-{3-amino-6-chloro-5-[4-(trifluoromethoxy)benzene-1-sulfonyl]pyridin-2-yl}-1,3,4-oxadiazol-2-yl)methanol] | 122% | < 0.46 nM | – | – | –
6 | Nc1c(-c2nnc(CO)o2)ncc(S(=O)(=O)c2ccc(OC(F)(F)F)cc2)c1Br [Compound 66, (5-{3-amino-4-bromo-5-[4-(trifluoromethoxy)benzene-1-sulfonyl]pyridin-2-yl}-1,3,4-oxadiazol-2-yl)methanol] | <1.18% | – | – | – | –

The next lines start with results.

Row | % Activation (CFTR ΔF508 mutant) | EC50 (CFTR ΔF508 mutant) | % Activation (CFTR G551D mutant) | EC50 (CFTR G551D mutant) | Structure (SMILES) | further results
7 | 120.51% | 2.36 nM | 49.0% | 181 nM | CC(O)(c1nnc(-c2ncc(S(=O)(=O)c3ccc(OC(F)(F)F)cc3)cc2N)o1)C(F)(F)F (centres unmarked) [Compound 3, 2-(5-{3-amino-5-[4-(trifluoromethoxy)benzene-1-sulfonyl]pyridin-2-yl}-1,3,4-oxadiazol-2-yl)-1,1,1-trifluoropropan-2-ol] | % Activation (CFTR-G178R): 57.4%; EC50 (CFTR-G178R): 1440 nM; % Activation (CFTR-G1349D): 58.6%; EC50 (CFTR-G1349D): 44.9 nM; % Activation (CFTR-S549N): 56.3%; EC50 (CFTR-S549N): 55.9 nM; % Activation (CFTR-R117H): 89.0%; EC50 (CFTR-R117H): 35.5 nM
8 | 122.9% | 15.3 nM | – | – | CN(Cc1ccccc1)S(=O)(=O)c1cnc(-c2nnc(CO)o2)c(N)c1 [Compound 60, 5-amino-N-benzyl-6-[5-(hydroxymethyl)-1,3,4-oxadiazol-2-yl]-N-methylpyridine-3-sulfonamide] | –
9 | 97.36% | 97.4 nM | – | – | Nc1cc(S(=O)(=O)c2ccccc2)cnc1-c1nnc(CO)o1 [Compound 61, {5-[3-amino-5-(benzenesulfonyl)pyridin-2-yl]-1,3,4-oxadiazol-2-yl}methanol] | –
10 | 109.95% | < 0.39 nM | – | – | Nc1cc(S(=O)(=O)c2ccc(OC(F)(F)F)cc2)c(Br)nc1-c1nnc(CO)o1 [Compound 63, (5-{3-amino-6-bromo-5-[4-(trifluoromethoxy)benzene-1-sulfonyl]pyridin-2-yl}-1,3,4-oxadiazol-2-yl)methanol] | –
11 | 106.55% | < 1.05 nM | – | – | CC(C)c1ccccc1S(=O)(=O)c1cnc(-c2nnc(CO)o2)c(N)c1 [Compound 65, (5-{3-amino-5-[2-(propan-2-yl)benzene-1-sulfonyl]pyridin-2-yl}-1,3,4-oxadiazol-2-yl)methanol] | –
